Reference: patent US6426355B1, “Heterocyclic carboxamide-containing thiourea inhibitors of herpes viruses containing phenylenediamine group” (American Home Products, priority 1998, dated 2002)
Converted amounts (≈) assume the structure as drawn.

How the values were obtained:
HSV-1 = assay: HSV Antiviral (ELISA) assay; assay type: cell-based; settings: HSV-1 in Vero cells
How it was run: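 Replication measured as glycoprotein D signal in fixed cells: anti-gD antibody plus β-galactosidase-linked secondary, fluorogenic substrate read at 365/450 nm. Vero cells (2% FBS DMEM) received compound 30 min pre-infection, HSV-1 MOI 0.006, ~24 h incubation; IC50 relative to no-compound fluorescence.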

VZV strain Ellen = assay: VZV Antiviral (ELISA) assay; assay type: cell-based; settings: VZV strain Ellen in HFF cells; for % inhibition 10 ug/ml VZV: at 10 ug/ml
How it was run: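 Low-MOI (<0.1) Ellen infection of HFF overnight; cell mix plated 3.5×10^4/well with compound, DMEM + 2% FBS, 3 d, 37° C, 5% CO2. Fix, anti-gpII mAb ELISA, MUG substrate, fluorescence. IC50 vs compound-free signal.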

[1] = tested on: HCMV recombinant mutant virus (RV145); assay: HCMV microtiter plate assay (beta-glucuronidase reporter); assay type: cell-based, Human Cytomegalovirus; settings: HCMV in human foreskin fibroblasts
How it was run: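 Replication was read out as virus-encoded β-glucuronidase activity, measured with a chromogenic or fluorogenic glucuronide substrate in cell lysates at 96 h post-infection. Infection of human foreskin fibroblasts with RV145 took place with compound present. IC50 was derived from a range of inhibitor amounts.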

Row | SMILES | IC50 (ug/ml) HSV (HSV-1) [µg/mL] | IC50 (ug/ml) VZV (VZV strain Ellen) [µg/mL] | % inhibition 10 ug/ml VZV (VZV strain Ellen) [%] | IC50 (ug/ml) HCMV [1] [µg/mL]
1 | COc1cc(OC)c(NC(=S)Nc2ccc(NC(=O)c3cc(Br)co3)cc2)cc1Cl [Example 169] | 3 (≈ 5.87 µM) | >10 | 26 | 4 (≈ 7.83 µM)
2 | COc1cc(OC)c(NC(=S)Nc2ccc(NC(=O)c3ccco3)cc2)cc1Cl [Example 170] | >10 | >10 | 32 | 0.2 (≈ 0.463 µM)
3 | COc1cc(OC)c(NC(=S)Nc2ccc(NC(=O)c3cncc4ccccc34)cc2)cc1Cl [Example 172] | >10 | >10 | 25 | >10
4 | COc1cc(OC)c(NC(=S)Nc2ccc(NC(=O)c3csnn3)cc2)cc1Cl [Example 173] | >10 | >10 | 31 | 0.08 (≈ 0.178 µM)
5 | COc1cc(OC)c(NC(=S)Nc2ccc(NC(=O)c3c[nH]nn3)cc2)cc1Cl [Example 174] | 50 (≈ 116 µM) | >10 | 8 | 6 (≈ 13.9 µM)
6 | COc1cc(OC)c(NC(=S)Nc2ccc(NC(=O)c3sccc3Br)cc2)cc1Cl [Example 175] | 2 (≈ 3.8 µM) | >10 | 24 | >10
7 | O=C(Nc1ccc(NC(=S)Nc2ccc(Cl)c(C(F)(F)F)c2)cc1)c1csnn1 [Example 200] | >10 | >15 | 55 | 0.02 (≈ 0.0437 µM)
8 | COc1c(Cl)cc(NC(=S)Nc2ccc(NC(=O)c3csnn3)cc2)cc1Cl [Example 201] | >10 | 8 (≈ 17.6 µM) | 78 | 0.023 (≈ 0.0506 µM)
9 | COc1cc(OC)c(NC(=S)Nc2ccc(NC(=O)c3ccccn3)cc2)cc1Cl [Example 224] | 3.5 (≈ 7.9 µM) | >10 | 30 | 0.8 (≈ 1.81 µM)
10 | COc1cc(OC)c(NC(=S)Nc2ccc(NC(=O)c3ccnc4ccccc34)cc2)cc1Cl [Example 225] | 1 (≈ 2.03 µM) | >10 | 30 | >10
11 | Cc1ccc(NC(=S)Nc2ccc(NC(=O)c3csnn3)cc2)cc1Cl [Example 230] | >10 | >10 | – | 0.015 (≈ 0.0371 µM)
12 | Cc1ccc(NC(=S)Nc2ccc(NC(=O)c3ccco3)cc2)cc1Cl [Example 233] | >10 | >10 | 30 | 0.09 (≈ 0.233 µM)
13 | Cc1ccc(NC(=S)Nc2ccc(NC(=O)c3ccccn3)cc2)cc1Cl [Example 236] | >10 | >10 | 40 | 0.7 (≈ 1.76 µM)
14 | CN(c1ccc(NC(=S)Nc2ccc(NC(=O)c3csnn3)cc2)cc1Cl)C1CCCCC1 [Example 237] | >10 | >10 | 17 | 0.02 (≈ 0.0399 µM)
15 | CN(c1ccc(NC(=S)Nc2ccc(NC(=O)c3ccco3)cc2)cc1Cl)C1CCCCC1 [Example 246] | >10 | 4 (≈ 8.28 µM) | 37 | 0.05 (≈ 0.104 µM)
16 | CN(c1ccc(NC(=S)Nc2ccc(NC(=O)c3ccccn3)cc2)cc1Cl)C1CCCCC1 [Example 249] | >10 | >10 | 59 | 0.4 (≈ 0.81 µM)
17 | COc1cc(OC)c(NC(=S)Nc2ccc(NC(=O)c3snnc3-c3ccccc3)cc2)cc1Cl [Example 264] | >10 | >10 | 28 | >10
18 | COc1cc(OC)c(NC(=S)Nc2ccc(NC(=O)c3nnsc3C)cc2)cc1Cl [Example 279] | >10 | >10 | – | >10
19 | COc1cc(OC)c(NC(=S)Nc2ccc(NC(=O)c3nnsc3-c3ccoc3)cc2)cc1Cl [Example 280] | >10 | >10 | – | >10

Row | SMILES | IC50 (ug/ml) HSV (HSV-1) [µg/mL] | IC50 (ug/ml) VZV (VZV strain Ellen) [µg/mL] | % inhibition 10 ug/ml VZV (VZV strain Ellen) [%] | IC50 (ug/ml) HCMV [1] [µg/mL]
20 | COc1cc(OC)c(NC(=S)Nc2ccc(NC(=O)c3nnsc3-c3ccccc3)cc2)cc1Cl [Example 281] | >10 | >10 | 31 | >10
21 | COc1cc(OC)c(NC(=S)Nc2ccc(NC(=O)c3snnc3-c3ccoc3)cc2)cc1Cl [Example 288] | >10 | >10 | 30 | 4 (≈ 7.75 µM)
22 | COc1cc(OC)c(NC(=S)Nc2ccc(NC(=O)c3cnns3)cc2)cc1Cl [Example 323] | 3 (≈ 6.67 µM) | >10 | 45 | 0.03 (≈ 0.0667 µM)
23 | CN(C)c1ccc(NC(=S)Nc2ccc(NC(=O)c3ccco3)cc2)cc1Cl [Example 330] | >10 | >10 | 29 | 0.15 (≈ 0.362 µM)
24 | CN(c1ccc(NC(=S)Nc2ccc(NC(=O)c3ccco3)cc2)cc1Cl)C1CCN(Cc2ccccc2)C1 (centres unmarked) [Example 331] | 1.8 (≈ 3.21 µM) | 5 (≈ 8.93 µM) | 98 | 2 (≈ 3.57 µM)
25 | CN1CCC(N(C)c2ccc(NC(=S)Nc3ccc(NC(=O)c4csnn4)cc3)cc2Cl)C1 (centres unmarked) [Example 341] | 2 (≈ 3.98 µM) | >10 | 50 | 0.15 (≈ 0.299 µM)
26 | CN1CCC(N(C)c2ccc(NC(=S)Nc3ccc(NC(=O)c4ccco4)cc3)cc2Cl)CC1 [Example 344] | 4 (≈ 8.03 µM) | 7 (≈ 14.1 µM) | 72 | 0.25 (≈ 0.502 µM)
27 | CN(C)c1ccc(NC(=S)Nc2ccc(NC(=O)c3ccccn3)cc2)cc1Cl [Example 350] | >10 | >10 | 50 | 1 (≈ 2.35 µM)
28 | CSc1ccc(NC(=S)Nc2ccc(NC(=O)c3ccccn3)cc2)cc1Cl [Example 351] | 3 (≈ 6.99 µM) | 3.5 (≈ 8.16 µM) | 90 | 0.3 (≈ 0.699 µM)
29 | COc1cc(C)c(Cl)cc1NC(=S)Nc1ccc(NC(=O)c2ccccn2)cc1 [Example 352] | 3 (≈ 7.03 µM) | >10 | 51 | 0.6 (≈ 1.41 µM)
30 | COc1cc(C)c(Cl)cc1NC(=S)Nc1ccc(NC(=O)c2ccco2)cc1 [Example 353] | 0.6 (≈ 1.44 µM) | 7 (≈ 16.8 µM) | 86 | 0.04 (≈ 0.0962 µM)
31 | CN1CCC(N(C)c2ccc(NC(=S)Nc3ccc(NC(=O)c4ccccn4)cc3)cc2Cl)C1 (centres unmarked) [Example 354] | 0.8 (≈ 1.62 µM) | 7 (≈ 14.1 µM) | 75 | 2 (≈ 4.04 µM)
32 | CN(C)CC(=O)Nc1ccc(NC(=S)Nc2ccc(NC(=O)c3ccco3)cc2)cc1Cl [Example 361] | 8 (≈ 17 µM) | >10 | 26 | 0.25 (≈ 0.53 µM)
33 | O=C(CN1CCCCC1)Nc1ccc(NC(=S)Nc2ccc(NC(=O)c3ccco3)cc2)cc1Cl [Example 365] | 10 (≈ 19.5 µM) | 5 (≈ 9.76 µM) | 75 | 0.035 (≈ 0.0684 µM)
34 | O=C(CN1CCOCC1)Nc1ccc(NC(=S)Nc2ccc(NC(=O)c3ccco3)cc2)cc1Cl [Example 368] | >10 | >10 | 20 | 0.35 (≈ 0.681 µM)
35 | CS(=O)(=O)Nc1ccc(NC(=S)Nc2ccc(NC(=O)c3ccco3)cc2)cc1Cl [Example 371] | >10 | >10 | 45 | >10
36 | CN1CCC(N(C)c2ccc(NC(=S)Nc3ccc(NC(=O)c4ccccn4)cc3)cc2Cl)CC1 [Example 376] | 3 (≈ 5.89 µM) | 7 (≈ 13.8 µM) | 83 | 0.8 (≈ 1.57 µM)
37 | O=C(Nc1ccc(NC(=S)Nc2ccc(Cl)c(C(F)(F)F)c2)cc1)c1ccco1 [Example 378] | >10 | >10 | 31 | 0.033 (≈ 0.075 µM)
38 | O=C(Nc1ccc(NC(=S)Nc2ccc(Cl)c(C(F)(F)F)c2)cc1)c1ccccn1 [Example 379] | >10 | >10 | 27 | >10
